# Experimental data reported in patent publication US20060281769A1, “SYNERGISTIC MODULATION OF FLT3 KINASE USING THIENOPYRIMIDINE AND THIENOPYRIDINE KINASE MODULATORS” (priority 2005, published 2006).
# Entries after “also recorded” stand apart in the source; their conditions may differ.
# Columns and labels:
# MV4-11 tumor xenografts = experiment: MV4-11 human tumor xenograft regression model in nude mice; assay type: in vivo; conditions: Tipifarnib 50 mg/kg oral single agent
# Description: Female athymic nude mice (CD-1, nu/nu, 9-10 weeks old) were obtained from Charles River Laboratories (Wilmington, Mass.) and were maintained according to NIH standards. All mice were group housed (5 mice/cage) under clean-room conditions in sterile micro-isolator cages on a 12-hour light/dark cycle in a room maintained at 21-22° C. and 40-50% humidity. Mice were fed irradiated standard rodent diet and water ad libitum. All animals were housed in a Laboratory Animal Medicine facility that is fully accredited by the American Association for Assessment and Accreditation of Laboratory Animal Care (AAALAC). All procedures involving animals were conducted in compliance with the NIH Guide for the Care and Use of Laboratory Animals and all protocols were approved by an Internal Animal Care and Use Committee (IACUC).
# On the day of study termination, a final tumor volume and final body weight were obtained on each animal. […]
# The time course of the inhibitory effects of FLT3 inhibitor compounds on the growth of MV4-11 tumors is illustrated in FIG. 1. […] Percent inhibition (% I) of tumor growth was calculated versus tumor growth in the vehicle-treated Control group on the last study day.
# (See FIG. 2). […] Percent Inhibition was calculated versus the mean tumor weight in the vehicle-treated control group. Statistical significance versus Control was determined by ANOVA followed by Dunnett's t-test: ** p<0.01. […]
# [1] = Tolerability in tumor-bearing nude mice (body weight, overt clinical signs); conditions: either agent alone or in combination
# Description: Female athymic nude mice weighing no less than 20-21 grams were inoculated subcutaneously in the left inguinal region of the thigh with 5×10^6 tumor cells in a delivery volume of 0.2 mL. For regression studies, the tumors were allowed to grow to a pre-determined size prior to initiation of dosing. […] Mice were dosed orally by gavage with vehicle (control group) or compound at various doses twice-daily (b.i.d.) during the week and once-daily (q.d.) on weekends. Dosing was continued for 11 consecutive days, depending on the kinetics of tumor growth and size of tumors in vehicle-treated control mice. […] During the study, tumor growth was measured three times-a-week (M, W, F) using electronic Vernier calipers. Tumor volume (mm^3) was calculated using the formula […], where L=length (mm) and W=width (shortest distance in mm) of the tumor. Body weight was measured three times-a-week and a loss of body weight >10% was used as an indication of lack of compound tolerability. […]
# Female athymic nude mice weighing no less than 20-21 grams were inoculated subcutaneously in the left inguinal region of the thigh with 5×10^6 tumor cells in a delivery volume of 0.2 mL. For regression studies, the tumors were allowed to grow to a pre-determined size prior to initiation of dosing. […] During the study, tumor growth was measured three times-a-week (M, W, F) using electronic Vernier calipers. […]
# MV4-11 AML cells = experiment: Cell proliferation assay MV4-11, single agents and FTI/FLT3 inhibitor combinations; assay type: cell-based, human; conditions: 72-hour cell proliferation assay, FLT3 dependent cells, depending on the cell type
# Source text: (§1) All data points are an average of triplicate samples.
# as §1
# [2] = system: relapsed and refractory AML; conditions: cited from earlier work
# [3] = multicenter Phase II trial, relapsed AML
# [4] = patients with relapsed and refractory AML, phase I
smiles,measurement,setting,value
"Cn1cncc1C(N)(c1ccc(Cl)cc1)c1ccc2c(c1)c(-c1cccc(Cl)c1)cc(=O)n2C (single isomer, unassigned; (+)) [Tipifarnib, (+)-6-[amino(4-chlorophenyl)(1-methyl-1H-imidazol-5-yl)methyl]-4-(3-chlorophenyl)-1-methyl-2(1H)-quinolinone]",effect on tumor volume versus control,"MV4-11 tumor xenografts; nine days, Day 9",not significantly reduced; also recorded: ineffective
same,effect on tumor growth,MV4-11 tumor xenografts; sixteen days,ineffective
same,overt toxicity and adverse effects on body weight,[1]; 9-day treatment period,No overt toxicity
same,overt toxicity and adverse effects on body weight,[1]; 16-day treatment period,No overt toxicity
same,"potency for inhibition of proliferation, single agent",MV4-11 AML cells,high nanomolar to high picomolar
same,>50% reduction in bone marrow blasts,[2]; [3],31 of 50
same,complete responses (bone marrow blasts <5%),[2]; [3],17 of 50
same,patients achieving complete remission,[2]; [4],2 patients
same,response rate,[2]; [4],~30%
